Assays:
[1] = tested on: HCV replicon I389luc-ubi-neo/NS3-3′/ET in ET (Huh-lucubineo-ET) cells; test: Replicon assay (Biological Example 2), luciferase readout; assay type: cell-based; conditions: Hepatitis C virus
How it was run: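 EC50 values come from Hill fits of % inhibition of replicon-driven firefly luciferase, relative to no-compound wells. Compounds were serially diluted (10 points, 3-fold, 0.1 nM–50 μM final, 0.5% DMSO) onto ET replicon cells and read after 48 h.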

HCV polymerase = biological target: T1, HCV polymerase (Hepatitis C virus genotype 1b, UniProt Q9WMX2); test: Polymerase assay of Biological Example 1 (IC50 values of Table 3); assay type: biochemical; conditions: IC50 values of Table 3, polymerase assay of Biological Example 1; read-out: NS5B-enzyme3
T1 construct: (His)6 (C); made in house; host or cells: XL-1 cells (E. coli, by own knowledge)

[2] = ET cells, luciferase activity 48 hours after compound

Row | Compound | IC50 ([1]; between 100 nM and 5.0 uM) | IC50 (HCV polymerase) | IC50 [1, 2]
1 | O=C(O)c1sc(-c2ccccc2)cc1N1C(=O)CN(S(=O)(=O)Cc2ccccc2)CC1C1CCCCC1 (stereo not shown) [Compound 27, 3-(2-Cyclohexyl-6-oxo-4-phenylmethanesulfonyl-piperazin-1-yl)-5-phenyl-thiophene-2-carboxylic acid] | 100 to 5000 nM | 22 nM | –
2 | CC(C)(C)C#Cc1cc(N2C(=O)[C@](C)(CCC(C)(C)O)OC[C@H]2C2CCCCC2)c(C(=O)O)s1 [Compound 318, 3-[(2S,5R)-5-Cyclohexyl-2-(3-hydroxy-3-methyl-butyl)-2-methyl-3-oxo-morpholin-4-yl]-5-(3,3-dimethyl-but-1-ynyl)-thiophene-2-carboxylic acid] | – | 14 nM | ≤ 100 nM
3 | C[C@@H](O)CC[C@]1(C)OC[C@@H](C2CCCCC2)N(c2cc(C#CC(C)(C)C)sc2C(=O)O)C1=O [Compound 320, 3-[(2S,5R)-5-Cyclohexyl-2-((R)-3-hydroxy-butyl)-2-methyl-3-oxo-morpholin-4-yl]-5-(3,3-dimethyl-but-1-ynyl)-thiophene-2-carboxylic acid] | – | 6 nM | ≤ 100 nM
4 | CCN1CCN(c2ccc(S(=O)(=O)N3CC(=O)N(c4cc(-c5ccccc5)sc4C(=O)O)[C@H](C4CCCCC4)C3)cn2)CC1 [Compound 148, 3-{(R)-2-Cyclohexyl-4-[6-(4-ethyl-piperazin-1-yl)-pyridine-3-sulfonyl]-6-oxo-piperazin-1-yl}-5-phenyl-thiophene-2-carboxylic acid] | – | 2 nM | ≤ 100 nM
5 | COc1ccc(-c2cc(N3C(=O)CCCC3C3CCCCC3)c(C(=O)O)s2)cc1 (stereo not shown) [Compound 114, 3-(2-Cyclohexyl-6-oxo-piperidin-1-yl)-5-(4-methoxy-phenyl)-thiophene-2-carboxylic acid] | 100 to 5000 nM | 90 nM | –
6 | COc1cccc(S(=O)(=O)N2CC(=O)N(c3cc(C#CC(C)(C)C)sc3C(=O)O)[C@H](C3CCCCC3)C2)c1 [Compound 257, 3-[(R)-2-Cyclohexyl-4-(3-methoxy-benzenesulfonyl)-6-oxo-piperazin-1-yl]-5-(3,3-dimethyl-but-1-ynyl)-thiophene-2-carboxylic acid] | – | 2 nM | ≤ 100 nM
7 | Cc1ccc(-c2cc(N3C(=O)C(C)(O)CCC3C3CCCCC3)c(C(=O)O)s2)cc1 (stereo not shown) [Compound 5, 3-(6-Cyclohexyl-3-hydroxy-3-methyl-2-oxo-piperidin-1-yl)-5-p-tolyl-thiophene-2-carboxylic acid] | – | 52 nM | ≤ 100 nM
8 | Cc1cccc(S(=O)(=O)N2CC(=O)N(c3cc(-c4ccccc4)sc3C(=O)O)C(C3CCCCC3)C2)c1 (stereo not shown) [Compound 49, 3-[2-Cyclohexyl-6-oxo-4-(toluene-3-sulfonyl)-piperazin-1-yl]-5-phenyl-thiophene-2-carboxylic acid] | 100 to 5000 nM | 15 nM | –
9 | O=C(O)c1sc(-c2ccccc2)cc1N1C(=O)CCC1C1CCCCC1 (stereo not shown) [Compound 1, 3-(2-Cyclohexyl-5-oxo-pyrrolidin-1-yl)-5-phenyl-thiophene-2-carboxylic acid] | 100 to 5000 nM | 181 nM | –
10 | CC(=O)Nc1ccc(S(=O)(=O)N2CC(=O)N(c3cc(-c4ccccc4)sc3C(=O)O)C(C3CCCCC3)C2)cc1 (stereo not shown) [Compound 50, 3-[4-(4-Acetylamino-benzenesulfonyl)-2-cyclohexyl-6-oxo-piperazin-1-yl]-5-phenyl-thiophene-2-carboxylic acid] | 100 to 5000 nM | 7 nM | –
11 | C[C@H]1CN(c2ccc(S(=O)(=O)N3CC(=O)N(c4cc(-c5ccccc5)sc4C(=O)O)[C@H](C4CCCCC4)C3)cn2)CCN1C(=O)OC(C)(C)C [Compound 162, (S)-4-{5-[(R)-4-(2-Carboxy-5-phenyl-thiophen-3-yl)-3-cyclohexyl-5-oxo-piperazine-1-sulfonyl]-pyridin-2-yl}-2-methyl-piperazine-1-carboxylic acid tert-butyl ester] | – | 2 nM | ≤ 100 nM
12 | O=C(O)c1sc(-c2ccccc2)cc1N1C(=O)CN(S(=O)(=O)c2ccc(OC(F)F)cc2)CC1C1CCCCC1 (stereo not shown) [Compound 106, 3-[2-Cyclohexyl-4-(4-difluoromethoxy-benzenesulfonyl)-6-oxo-piperazin-1-yl]-5-phenyl-thiophene-2-carboxylic acid] | 100 to 5000 nM | 14 nM | –
13 | CC(C)(C)OC(=O)N[C@@H]1CCN(c2ccc(S(=O)(=O)N3CC(=O)N(c4cc(-c5ccccc5)sc4C(=O)O)[C@H](C4CCCCC4)C3)cn2)C1 [Compound 146, 3-{(R)-4-[6-((R)-3-tert-Butoxycarbonyl-amino-pyrrolidin-1-yl)-pyridine-3-sulfonyl]-2-cyclohexyl-6-oxo-piperazin-1-yl}-5-phenyl-thiophene-2-carboxylic acid] | – | 2 nM | ≤ 100 nM
14 | CC(C)(C)C#Cc1cc(N2C(=O)[C@](C)(CCCO)OC[C@H]2C2CCCCC2)c(C(=O)O)s1 [Compound 7, 3-[(2S,5R)-5-Cyclohexyl-2-(3-hydroxy-propyl)-2-methyl-3-oxo-morpholin-4-yl]-5-(3,3-dimethyl-but-1-ynyl)-thiophene-2-carboxylic acid] | – | 6 nM | ≤ 100 nM
15 | CC(C)(C)C#Cc1cc(N2C(=O)CN(S(=O)(=O)c3ccc(F)cc3F)C[C@H]2C2CCCCC2)c(C(=O)O)s1 [Compound 281, 3-[(R)-2-Cyclohexyl-4-(2,4-difluoro-benzenesulfonyl)-6-oxo-piperazin-1-yl]-5-(3,3-dimethyl-but-1-ynyl)-thiophene-2-carboxylic acid] | – | 3 nM | ≤ 100 nM
16 | N#Cc1cccc(S(=O)(=O)N2CC(=O)N(c3cc(-c4ccccc4)sc3C(=O)O)[C@H](C3CCCCC3)C2)c1 [Compound 97, 3-[(R)-4-(3-Cyano-benzenesulfonyl)-2-cyclohexyl-6-oxo-piperazin-1-yl]-5-phenyl-thiophene-2-carboxylic acid] | 100 to 5000 nM | 27 nM | –
17 | O=C(O)c1sc(-c2ccccc2)cc1N1C(=O)CN(S(=O)(=O)c2ccc(N3CCNCC3)nc2)CC1C1CCCCC1 (stereo not shown) [Compound 88, 3-[2-Cyclohexyl-6-oxo-4-(6-piperazin-1-yl-pyridine-3-sulfonyl)-piperazin-1-yl]-5-phenyl-thiophene-2-carboxylic acid] | – | 2.13 nM | ≤ 100 nM
18 | Cn1ccc2cccc(S(=O)(=O)N3CC(=O)N(c4cc(-c5ccccc5)sc4C(=O)O)C(C4CCCCC4)C3)c21 (stereo not shown) [Compound 57, 3-[2-Cyclohexyl-4-(1-methyl-1H-indole-7-sulfonyl)-6-oxo-piperazin-1-yl]-5-phenyl-thiophene-2-carboxylic acid] | – | 260 nM | ≥ 5000 nM
19 | COc1cc(F)c(S(=O)(=O)N2CC(=O)N(c3cc(C#CC(C)(C)C)sc3C(=O)O)[C@H](C3CCCCC3)C2)cc1OC [Compound 276, 3-[(R)-2-Cyclohexyl-4-(2-fluoro-4,5-dimethoxy-benzenesulfonyl)-6-oxo-piperazin-1-yl]-5-(3,3-dimethyl-but-1-ynyl)-thiophene-2-carboxylic acid] | – | 2 nM | ≤ 100 nM
20 | Cc1cc(S(=O)(=O)N2CC(=O)N(c3cc(-c4ccccc4)sc3C(=O)O)[C@H](C3CCCCC3)C2)cnc1N1CCCC1 [Compound 172, 3-[(R)-2-Cyclohexyl-4-(5-methyl-6-pyrrolidin-1-yl-pyridine-3-sulfonyl)-6-oxo-piperazin-1-yl]-5-phenyl-thiophene-2-carboxylic acid] | – | 1.2 nM | ≤ 100 nM
21 | Cc1ccc(-c2cc(N3C(=O)CN(S(=O)(=O)c4ccc(N5CCC[C@H]5C)nc4)C[C@H]3C3CCCCC3)c(C(=O)O)s2)cc1 [Compound 180, 3-{(R)-2-Cyclohexyl-4-[6-((R)-2-methyl-pyrrolidin-1-yl)-pyridine-3-sulfonyl]-6-oxo-piperazin-1-yl}-5-p-tolyl-thiophene-2-carboxylic acid] | – | < 0.2 nM | ≤ 100 nM
22 | O=C(O)c1sc(-c2ccc(F)cc2)cc1N1C(=O)CN(S(=O)(=O)c2ccc(N3CC[C@@H](F)C3)nc2)C[C@H]1C1CCCCC1 [Compound 280, 3-{(R)-2-Cyclohexyl-4-[6-((R)-3-fluoro-pyrrolidin-1-yl)-pyridine-3-sulfonyl]-6-oxo-piperazin-1-yl}-5-(4-fluoro-phenyl)-thiophene-2-carboxylic acid] | – | 1 nM | ≤ 100 nM
23 | O=C(O)c1sc(-c2ccccc2)cc1N1C(=O)CN(S(=O)(=O)c2ccc(N3C4CCC3CC4)nc2)CC1C1CCCCC1 (stereo not shown) [Compound 125, 3-{4-[6-(7-Aza-bicyclo[2.2.1]hept-7-yl)-pyridine-3-sulfonyl]-2-cyclohexyl-6-oxo-piperazin-1-yl}-5-phenyl-thiophene-2-carboxylic acid] | – | 18 nM | ≤ 100 nM
24 | CC(C)(C)C#Cc1cc(N2C(=O)[C@](C)(CC(O)CO)OC[C@H]2C2CCCCC2)c(C(=O)O)s1 (stereo partly drawn) [Compound 327, 3-[(2S,5R)-5-Cyclohexyl-2-(2,3-dihydroxy-propyl)-2-methyl-3-oxo-morpholin-4-yl]-5-(3,3-dimethyl-but-1-ynyl)-thiophene-2-carboxylic acid] | – | 4 nM | ≤ 100 nM
25 | O=C(O)c1sc(-c2ccc(Cl)cc2)cc1N1C(=O)CN(S(=O)(=O)c2ccc(N3CCCC3)cc2)C[C@H]1C1CCCCC1 [Compound 231, 5-(4-Chloro-phenyl)-3-[(R)-2-cyclohexyl-6-oxo-4-(4-pyrrolidin-1-yl-benzenesulfonyl)-piperazin-1-yl]-thiophene-2-carboxylic acid] | – | 1 nM | ≤ 100 nM
26 | O=C(O)c1sc(-c2ccc(Cl)cc2)cc1N1C(=O)CN(S(=O)(=O)c2ccc(N3CCOCC3)nc2)C[C@H]1C1CCCCC1 [Compound 199, 5-(4-Chloro-phenyl)-3-[(R)-2-cyclohexyl-4-(6-morpholin-4-yl-pyridine-3-sulfonyl)-6-oxo-piperazin-1-yl]-thiophene-2-carboxylic acid] | – | 2 nM | ≤ 100 nM
